Test results published in ChEMBL document CHEMBL5725882, “Imide and acylurea derivatives as modulators of the glucocorticoid receptor” (2017).

biological target: T1, Glucocorticoid receptor (Homo sapiens, UniProt P04150); assay: Briefly, purified human recombinant full-length glucocorticoid receptor (2 nM) was mixed with fluorescently labeled glucocorticoid (1 nM Fluormone GS Red) in the presence or absence of test compound. After two hour incubation at room temperature in the dark, the fluorescence polarization (FP) of the samples was measured. […] Test compounds were analyzed in the concentration range from 8.5E-05 μM to 5 μM. Binding Assay (II):In order to measure the binding of compounds on the glucocorticoid receptor a commercially available kit was used (Glucocorticoid receptor competitor assay kit, PanVera Co., Madison, Wis., P2816). Briefly, a cell lysate containing recombinantly expressed human full-length glucocorticoid receptor was mixed with a fluorescently labeled glucocorticoid (1 nM Fluormone GS1) in the presence or absence of test compound. After one hour at room temperature, the fluorescence polarization (FP) of the samples were measured. […] An appropriate cell lysate or purified NHR is used as the source of the NHR. The fluorescent probe and unlabeled competitor are appropriate for the specific NHR, i.e., are ligands for the specific NHR.
T1 sequence (P04150 whole entry): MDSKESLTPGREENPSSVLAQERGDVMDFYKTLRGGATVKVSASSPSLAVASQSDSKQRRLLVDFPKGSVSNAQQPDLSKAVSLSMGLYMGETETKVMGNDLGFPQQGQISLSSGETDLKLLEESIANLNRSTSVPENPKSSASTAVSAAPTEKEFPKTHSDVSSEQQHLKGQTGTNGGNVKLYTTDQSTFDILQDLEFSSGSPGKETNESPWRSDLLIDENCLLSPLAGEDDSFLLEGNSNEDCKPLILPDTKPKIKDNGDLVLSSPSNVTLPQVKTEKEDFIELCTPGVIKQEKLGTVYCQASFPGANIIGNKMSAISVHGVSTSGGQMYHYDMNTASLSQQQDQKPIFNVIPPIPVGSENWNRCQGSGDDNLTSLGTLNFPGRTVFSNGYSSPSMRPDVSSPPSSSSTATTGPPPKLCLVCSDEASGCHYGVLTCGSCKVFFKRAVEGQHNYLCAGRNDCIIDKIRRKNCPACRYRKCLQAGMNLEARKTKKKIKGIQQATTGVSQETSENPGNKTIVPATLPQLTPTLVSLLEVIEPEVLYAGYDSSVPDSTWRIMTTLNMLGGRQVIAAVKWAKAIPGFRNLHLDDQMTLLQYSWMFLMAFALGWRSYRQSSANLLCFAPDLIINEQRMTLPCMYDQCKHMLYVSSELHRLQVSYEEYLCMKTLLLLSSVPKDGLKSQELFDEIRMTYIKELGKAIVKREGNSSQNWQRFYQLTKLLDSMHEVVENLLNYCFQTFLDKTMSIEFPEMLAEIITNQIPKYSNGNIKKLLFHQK

| Ki [µM] | Compound |
| --- | --- |
| 0.00528 | COC(=O)NC(=O)C(C)(C)[C@@H]1c2ccc(-c3ccc(C(=O)OC)cc3)nc2Oc2c(F)cccc21 |
| 0.00142 | CNC(=O)NC(=O)C(C)(C)[C@@H]1c2ccc(-c3ccc(C(C)(C)O)cc3)nc2Oc2c(F)cccc21 |
| 0.00701 | CC(=O)NC(=O)C(C)(C)[C@H]1c2ccccc2Oc2nc(-c3ccc(C(=O)N4CCOCC4)cc3)ccc21 |
| 0.0375 | CNC(=O)NC(=O)C(C)(C)[C@@H]1c2ccc(Cl)nc2Oc2c(F)cccc21 |
| 0.0251 | CC(C)(O)c1ccc(-c2ccc3c(n2)Oc2c(F)cccc2[C@@H]3C(C)(C)C(=O)NC(=O)NCCO)cc1 |
| 0.0324 | CC(C)NC(=O)NC(=O)C(C)(C)[C@@H]1c2ccc(-c3ccc(C(=O)N4CCOCC4)cc3)nc2Oc2c(F)cccc21 |
| 0.0935 | CC(=O)NC(=O)C(C)(C)[C@@H]1c2ccc(-c3ccc(C(=O)N(C)C)cc3)nc2Oc2c(F)cccc21 |
| 0.0871 | CC(C)(O)CNC(=O)NC(=O)C(C)(C)[C@@H]1c2ccc(-c3ccc(C(=O)N4CCOCC4)cc3)nc2Oc2c(F)cccc21 |
| 0.00058 | CC(C)S(=O)(=O)c1ccc(-c2ccc3c(n2)Oc2ccccc2[C@@H]3C(C)(C)C(=O)NC(N)=O)cc1 |
| 0.00181 | CC(C)(C(=O)NC(N)=O)[C@H]1c2ccccc2Oc2nc(-c3ccc(C(=O)N4CCOCC4)cc3)ccc21 |
| 0.0208 | CC(C)(O)CNC(=O)NC(=O)C(C)(C)[C@@H]1c2ccc(-c3ccc(C(C)(C)O)cc3)nc2Oc2c(F)cccc21 |
| 0.171 | CC(C)(C(=O)NC(=O)N1CCOCC1)[C@@H]1c2ccc(-c3ccc(C(=O)N4CCOCC4)cc3)nc2Oc2c(F)cccc21 |
| 0.0665 | CCC(=O)NC(=O)C(C)(C)[C@@H]1c2ccc(-c3ccc(C(=O)N4CCOCC4)cc3)nc2Oc2c(F)cccc21 |
| 0.0617 | CC(C)(C(=O)NC(=O)NCCO)[C@@H]1c2ccc(-c3ccc(C(=O)N4CCOCC4)cc3)nc2Oc2c(F)cccc21 |

| Compound | Ki [µM] |
| --- | --- |
| CC(C)(C(=O)NC(N)=O)[C@@H]1c2ccc(-c3ccc(C(=O)N4CCC4)cc3)nc2Oc2c(F)cccc21 | 0.00093 |
| CC(C)(O)c1ccc(-c2ccc3c(n2)Oc2c(F)cccc2[C@@H]3C(C)(C)C(=O)NC(N)=O)cc1 | 0.00032 |
| COc1ccc2c(c1)Oc1ccccc1[C@@H]2C(C)(C)C(=O)NC(N)=O | 0.00857 |
